In BindingDB's records for doi:10.7270/Q2WD3Z10 (Burnham Center For Chemical Genomics, 2010):

Biological target: NACHT, LRR and PYD domains-containing protein 3 (Homo sapiens, UniProt Q96P20)
Experiment: NALP3 inhibitors in yeast, dose response, luminescent (AID 488799)

Sequence of NACHT, LRR and PYD domains-containing protein 3 (Q96P20 whole entry, the tested form may be a part): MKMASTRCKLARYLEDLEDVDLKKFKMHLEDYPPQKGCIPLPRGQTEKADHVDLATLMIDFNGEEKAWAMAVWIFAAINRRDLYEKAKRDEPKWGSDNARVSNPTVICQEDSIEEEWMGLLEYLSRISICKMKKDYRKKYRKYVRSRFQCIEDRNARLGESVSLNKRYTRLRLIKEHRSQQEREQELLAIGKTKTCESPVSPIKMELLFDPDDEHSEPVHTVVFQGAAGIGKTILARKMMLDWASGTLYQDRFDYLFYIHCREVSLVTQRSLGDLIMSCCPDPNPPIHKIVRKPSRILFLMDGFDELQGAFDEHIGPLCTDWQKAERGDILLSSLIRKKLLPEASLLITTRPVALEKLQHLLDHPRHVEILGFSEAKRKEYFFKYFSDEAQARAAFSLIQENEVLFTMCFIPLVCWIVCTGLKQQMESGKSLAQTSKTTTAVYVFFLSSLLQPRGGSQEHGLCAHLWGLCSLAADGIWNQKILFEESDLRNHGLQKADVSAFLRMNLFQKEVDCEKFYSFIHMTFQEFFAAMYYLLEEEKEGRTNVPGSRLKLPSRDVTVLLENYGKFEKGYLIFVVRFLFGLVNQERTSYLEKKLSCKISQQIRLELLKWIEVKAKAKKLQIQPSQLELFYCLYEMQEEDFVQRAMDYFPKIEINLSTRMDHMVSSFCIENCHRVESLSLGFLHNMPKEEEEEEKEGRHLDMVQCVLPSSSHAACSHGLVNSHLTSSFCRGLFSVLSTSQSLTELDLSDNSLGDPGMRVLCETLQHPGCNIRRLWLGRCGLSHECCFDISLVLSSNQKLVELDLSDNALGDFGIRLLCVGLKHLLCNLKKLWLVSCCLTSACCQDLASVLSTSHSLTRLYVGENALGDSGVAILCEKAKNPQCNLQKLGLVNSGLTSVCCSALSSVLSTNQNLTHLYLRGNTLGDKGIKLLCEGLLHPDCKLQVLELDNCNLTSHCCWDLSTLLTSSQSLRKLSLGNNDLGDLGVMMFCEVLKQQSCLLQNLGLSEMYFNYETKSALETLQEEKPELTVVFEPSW

Cc1csc2nc(=O)c(C(=O)NCCC3=CCCCC3)c(O)n12
IC50: 4.07 µM

C=CCc1c(C)nc(C)nc1N=NCc1ccccc1O [2-[(5-Allyl-2,6-dimethyl-pyrimidin-4-yl)-hydrazonomethyl]-phenol]
IC50: 45.5 µM

O=C(NCCCc1ccccc1)c1c(O)n2ccsc2nc1=O [5-oxidanyl-7-oxidanylidene-N-(3-phenylpropyl)-[1,3]thiazolo[3,2-a]pyrimidine-6-carboxamide]
IC50: 9.61 µM

O=C1C=CC(/N=N/c2ccc([N+](=O)[O-])cc2Cl)=CC1C(=O)Nc1cccc(Cl)c1 (stereo unspecified) [(3Z)-3-[(2-chloro-4-nitrophenyl)hydrazinylidene]-N-(3-chlorophenyl)-6-oxocyclohexa-1,4-diene-1-carboxamide]
IC50: 1.34 µM

CCCCCC(=O)N1CCN(CCNC=C2C(=O)CC(c3ccco3)CC2=O)CC1 (stereo unspecified) [SMR000019406]
IC50: 7.3 µM

O=C(NCCC1=CCCCC1)c1c(O)n2ccsc2nc1=O [SMR000811826]
IC50: 3.8 µM
